Assay results taken from patent US20230382894A1, “CCR4 ANTAGONISTS” (CHEMOCENTRYX, INC., priority 2022, published 2023).

How the values were obtained:
CCR4 [1] = molecular target: T1, CCR4 (Homo sapiens, UniProt P51679); assay: CEM cell chemotaxis (migration) assay to CCL22 (MDC) in 100% Fetal Bovine Serum (FBS); format: cell-based; details: CEM cells in 100% FBS with 1% HEPEs; recombinant human CCL22 0.1 nM; 37° C. 60 minutes
T1 construct: CEM Cells Endogenous Express CCR4; endogenous in cells; host or cells: CEM cells
T1 sequence (P51679 1-360): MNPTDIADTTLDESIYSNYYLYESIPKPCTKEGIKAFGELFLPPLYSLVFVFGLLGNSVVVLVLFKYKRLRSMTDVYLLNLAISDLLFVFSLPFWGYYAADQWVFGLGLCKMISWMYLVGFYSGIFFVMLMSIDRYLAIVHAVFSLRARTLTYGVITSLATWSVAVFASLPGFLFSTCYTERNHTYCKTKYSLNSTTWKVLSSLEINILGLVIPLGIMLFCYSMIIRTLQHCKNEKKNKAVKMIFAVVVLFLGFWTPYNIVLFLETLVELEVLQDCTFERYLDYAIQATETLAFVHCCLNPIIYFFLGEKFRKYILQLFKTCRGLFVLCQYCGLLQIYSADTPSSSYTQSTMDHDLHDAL
Procedure, shortened: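 Endogenously CCR4-expressing CEM cells in 100% FBS with 1% HEPES were preincubated with serially diluted compound (top final 10 μM) and allowed to migrate through 5 μm polycarbonate membranes toward 0.1 nM human CCL22 (EC50) for 60 min at 37 °C. Migrated cells were quantified by CyQUANT fluorescence.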

CCR4 [2] = molecular target: T1, CCR4; assay: CEM cell chemotaxis (migration) assay to CCL22 (MDC) in HBSS buffer with 0.1% BSA; format: cell-based; details: CEM cells in HBSS with 0.1% BSA; recombinant human CCL22 0.1 nM; 37° C. 60 minutes
From the text: CEM Cells Endogenous Express CCR4
A chemotaxis assay can be used to determine the efficacy of potential receptor antagonists at blocking the migration mediated through chemokine receptors, such as CCR4. This assay is routinely performed using the ChemoTX® microchamber system with a 5 μm pore-sized polycarbonate membrane.
HBSS: CEM Cells are collected by centrifugation at 400×g at room temperature, then suspended at 5 million/ml in Hanks' Balanced Salt Solution (HBSS) buffer with 0.1% BSA. The compound being tested is serially diluted from a maximum final concentration of 10 μM (or an equivalent volume of its solvent (DMSO)) and is then added to the cell/buffer mixture. Separately, recombinant human CCL22 (MDC) at its EC50 concentration (0.1 nM) is placed in the lower wells of the ChemoTX® plate. The 5-μm (pore size) polycarbonate membrane was placed onto the plate, and 20 μL of the cell/compound mixture is transferred onto each well of the membrane. The plates are incubated at 37° C. for 60 minutes, after which the polycarbonate membranes are removed and 5 μl of the DNA-intercalating dye CyQUANT (Invitrogen, Carlsbad, CA) is added to the lower wells. The amount of fluorescence, corresponding to the number of migrated cells, is measured using a Spectrafluor Plus plate reader (TECAN, San Jose, CA).

Row | SMILES | IC50 (CCR4 [1]) [nM] | IC50 (CCR4 [2]) [nM]
1 | C[C@@H](Nc1nc(N2CCC(C3CCCN(CCC(=O)O)C3)CC2)ncc1Cl)c1ccc(Cl)cc1Cl (stereo partly drawn) [Example 1.035] | < 100 | < 100
2 | C[C@@H]1CN(c2ncc(Cl)c(N[C@H](C)c3ccc(Cl)cc3Cl)n2)CCN1C(=O)N1CCNCC1 [Example 1.036] | > 1000 | > 1000
3 | C[C@@H](Nc1nc(N2CCN(C(=O)C3(C)CNC3)CC2)ncc1Cl)c1ccc(Cl)cc1Cl [Example 1.037] | 100 to 1000 | 100 to 1000
4 | C[C@@H]1CN(C(=O)[C@H]2CCCN2)CCN1c1ncc(Cl)c(N[C@H](C)c2ccc(Cl)cc2Cl)n1 [Example 1.038] | < 100 | < 100
5 | C[C@@H](Nc1nc(N2CCC(NC(=O)[C@H]3CCCN3)CC2)ncc1Cl)c1ccc(Cl)cc1Cl [Example 1.039] | < 100 | < 100
6 | C[C@@H](Nc1nc(N2CCN(C(=O)C(C)(C)N)CC2)ncc1Cl)c1ccc(Cl)cc1Cl [Example 1.040] | < 100 | < 100
7 | C[C@@H](Nc1nc(N2CCN(C(=O)CN(C)C)CC2)ncc1Cl)c1ccc(Cl)cc1Cl [Example 1.041] | < 100 | < 100
8 | C[C@@H]1CN(c2ncc(Cl)c(N[C@H](C)c3ccc(Cl)cc3Cl)n2)CCN1C(=O)[C@H]1CCCN1 [Example 1.042] | < 100 | < 100
9 | Cc1nc(N2CCN(C(=O)[C@H]3CCCN3)[C@H](CO)C2)nc(N[C@H](C)c2ccc(Cl)cc2Cl)c1Cl [Example 1.043] | < 100 | < 100
10 | C[C@@H](Nc1nc(N2CCN(C(=O)[C@H]3CCCCN3)CC2)ncc1Cl)c1ccc(Cl)cc1Cl [Example 1.044] | < 100 | < 100
11 | C[C@@H](Nc1nc(N2CCC(C3CCCNC3)CC2)ncc1Cl)c1ccc(Cl)cc1Cl (stereo partly drawn) [Example 1.045] | < 100 | < 100
12 | C[C@@H](Nc1nc(N2CCN(C(=O)[C@H]3CCCN3CCO)CC2)ncc1Cl)c1ccc(Cl)cc1Cl [Example 1.046] | < 100 | < 100
13 | C[C@@H](Nc1nc(N2CCC(C3CCCN(CCO)C3)CC2)ncc1Cl)c1ccc(Cl)cc1Cl (stereo partly drawn) [Example 1.047] | < 100 | < 100
14 | C[C@@H](Nc1nc(N2CCN(C(=O)[C@H]3CCCN3CCC(=O)O)CC2)ncc1Cl)c1ccc(Cl)cc1Cl [Example 1.048] | < 100 | < 100
15 | Cc1nc(N2CCN(C(=O)[C@H]3CCCN3)CC2)nc(N[C@H](C)c2ccc(Cl)cc2Cl)c1Cl [Example 1.049] | < 100 | < 100
16 | C[C@@H](Nc1nc(N2CCN(C(=O)[C@@H]3CCCN3C(=O)OC(C)(C)C)CC2)ncc1Cl)c1ccc(Cl)cc1Cl [Example 1.050] | > 1000 | 100 to 1000
17 | C[C@@H](Nc1nc(N2CCN(C(=O)[C@H]3CCCN3C(=O)OC(C)(C)C)CC2)ncc1Cl)c1ccc(Cl)cc1Cl [Example 1.051] | 100 to 1000 | 100 to 1000
18 | C[C@@H](Nc1nc(N2CCN(C(=O)[C@@H]3CCCN3)CC2)ncc1Cl)c1ccc(Cl)cc1Cl [Example 1.052] | < 100 | < 100
19 | C[C@@H](Nc1nc(N2CCN(C(=O)[C@H]3CCCN3)CC2)ncc1Cl)c1ccc(Cl)cc1Cl [Example 1.053] | < 100 | < 100
20 | C[C@@H](Nc1nc(N2CCN(C3CCCN(CCC(=O)O)C3)CC2)ncc1Cl)c1ccc(Cl)cc1Cl (stereo partly drawn) [Example 1.054] | < 100 | < 100
21 | C[C@@H](Nc1nc(N2CCN(C3CCCNC3)CC2)ncc1Cl)c1ccc(Cl)cc1Cl (stereo partly drawn) [Example 1.055] | < 100 | < 100
22 | C[C@@H](Nc1nc(C2=CCN([C@H]3CCCN(CCC(N)=O)C3)CC2)ncc1Cl)c1ccc(Cl)cc1Cl [Example 1.056] | < 100 | < 100
23 | C[C@@H](Nc1nc(C2=CCN([C@H]3CCCN(CCC(=O)O)C3)CC2)ncc1Cl)c1ccc(Cl)cc1Cl [Example 1.057] | < 100 | < 100
24 | C[C@@H](Nc1nc(C2=CCN([C@H]3CCCN(CCO)C3)CC2)ncc1Cl)c1ccc(Cl)cc1Cl [Example 1.058] | < 100 | < 100

Row | SMILES | IC50 (CCR4 [1]) [nM] | IC50 (CCR4 [2]) [nM]
25 | C[C@@H](Nc1nc(N2CCN(C(=O)N(C)C3CCNC3)CC2)ncc1Cl)c1ccc(Cl)cc1Cl (stereo partly drawn) [Example 1.059] | < 100 | < 100
26 | C[C@@H](Nc1nc(N2CCC(NC(=O)[C@H]3CCN(C)C3)CC2)ncc1Cl)c1ccc(Cl)cc1Cl [Example 1.060] | < 100 | < 100
27 | C[C@@H](Nc1nc(N2CCC(NC(=O)[C@H]3CCNC3)CC2)ncc1Cl)c1ccc(Cl)cc1Cl [Example 1.061] | < 100 | < 100
28 | CC(C)N(C(=O)C1CCNC1)C1CCN(c2ncc(Cl)c(N[C@H](C)c3ccc(Cl)cc3Cl)n2)CC1 (stereo partly drawn) [Example 1.062] | > 1000 | > 1000
29 | C[C@@H](Nc1nc(N2CCN(C3CCCN(CC(=O)O)C3)CC2)ncc1Cl)c1ccc(Cl)cc1Cl (stereo partly drawn) [Example 1.063] | < 100 | < 100
30 | C[C@@H](Nc1nc(N2CCC(N(CCO)C(=O)[C@H]3CCCN3)CC2)ncc1Cl)c1ccc(Cl)cc1Cl [Example 1.064] | < 100 | < 100
31 | CC(Nc1nc(N2CCC(C(=O)N(C)C3CCNC3)CC2)ncc1Cl)c1ccc(Cl)cc1Cl (stereo not drawn) [Example 1.065] | < 100 | < 100
32 | C[C@@H](Nc1nc(N2CCN(C(=O)[C@@H]3CCN(C)C3)CC2)ncc1Cl)c1ccc(Cl)cc1Cl [Example 1.066] | < 100 | < 100
33 | C[C@@H](Nc1nc(N2CCC(NC(=O)[C@@H]3CCN(C)C3)CC2)ncc1Cl)c1ccc(Cl)cc1Cl [Example 1.067] | 100 to 1000 | < 100
34 | CNC1CCN(C(=O)C2CCN(c3ncc(Cl)c(N[C@H](C)c4ccc(Cl)cc4Cl)n3)CC2)C1 (stereo partly drawn) [Example 1.068] | < 100 | < 100
35 | C[C@@H](Nc1nc(N2CCN(C(=O)[C@H]3C[C@@H](O)CN3)CC2)ncc1Cl)c1ccc(Cl)cc1Cl [Example 1.069] | < 100 | < 100
36 | C[C@@H](Nc1nc(N2CCN(C(=O)[C@@H]3CCNC3)CC2)ncc1Cl)c1ccc(Cl)cc1Cl [Example 1.070] | < 100 | < 100
37 | Cc1cnc(N2CCN(C(=O)[C@H]3CCCN3)CC2)nc1N[C@H](C)c1ccc(Cl)cc1Cl [Example 1.071] | < 100 | < 100
38 | C[C@@H](Nc1nc(N2CCN(C(=O)N(C)CCN(C)C)CC2)ncc1Cl)c1ccc(Cl)cc1Cl [Example 1.072] | < 100 | < 100
39 | C[C@@H](Nc1nc(N2CCN(C(=O)[C@H]3CCC(=O)N3)CC2)ncc1Cl)c1cccc(Cl)c1 [Example 1.075] | 100 to 1000 | > 1000
40 | CC(Nc1nc(N2CCN(C(=O)[C@H]3CCC(=O)N3)CC2)ncc1Cl)c1c(F)cc(Cl)cc1F (stereo partly drawn) [Example 1.076] | < 100 | < 100
41 | C[C@@H](Nc1nc(C2CCN(C3CCCN(CCC(=O)O)C3)CC2)ncc1Cl)c1ccc(Cl)cc1Cl (stereo partly drawn) [Example 1.077] | < 100 | < 100
42 | C[C@@H]1CN(C(=O)[C@H]2CCC(=O)N2)CCN1c1ncc(Cl)c(N[C@H](C)c2ccc(Cl)cc2Cl)n1 [Example 1.078] | < 100 | < 100
43 | C[C@@H](Nc1nc(N2CCN(C(=O)[C@H]3CCS(=O)(=O)N3)CC2)ncc1Cl)c1ccc(Cl)cc1Cl [Example 1.079] | < 100 | < 100
44 | C[C@@H](Nc1nc(N2CCN(C(=O)[C@H]3CCCN3)CC2)nc(N)c1Cl)c1ccc(Cl)cc1Cl [Example 1.080] | < 100 | < 100
45 | C[C@@H](Nc1nc(N2CCN(C(=O)[C@H]3CCC(=O)N3)C[C@@H]2C)ncc1Cl)c1ccc(Cl)cc1Cl [Example 1.081] | < 100 | < 100
46 | CC(Nc1nc(N2CCN(C(=O)[C@H]3CCC(=O)N3)CC2)ncc1Cl)c1cc(F)c(Cl)cc1Cl (stereo partly drawn) [Example 1.082] | < 100 | < 100
47 | C[C@@H](Nc1nc(N2CCN(C(=O)[C@H]3CCC(=O)N3)CC2)ncc1Cl)c1cc(Cl)cc(Cl)c1 [Example 1.083] | > 1000 | > 1000
48 | C[C@H](Nc1nc(N2CCN(C(=O)[C@H]3CCC(=O)N3)CC2)ncc1Cl)c1cc(F)c(Cl)cc1Cl [Example 1.110] | > 1000 | > 1000
